Literature values in patent publication US20180228856A1, “Antibacterial combination of Basil oil and Taiwan red cypress oil for preventing drug-resistant S. aureus infections and the use thereof” (priority 2017, published 2018).
Converted amounts (≈) assume the structure as drawn.

Tested on: VISA strain Z172
Details: strain characteristic of Z172

Compound | minimum inhibitory concentration (MIC)
CN[C@H](CC(C)C)C(=O)N[C@H]1C(=O)N[C@@H](CC(N)=O)C(=O)N[C@H]2C(=O)N[C@H]3C(=O)N[C@H](C(=O)N[C@H](C(=O)O)c4cc(O)cc(O)c4-c4cc3ccc4O)[C@H](O)c3ccc(c(Cl)c3)Oc3cc2cc(c3O[C@@H]2O[C@H](CO)[C@@H](O)[C@H](O)[C@H]2O[C@H]2C[C@](C)(N)[C@H](O)[C@H](C)O2)Oc2ccc(cc2Cl)[C@H]1O [vancomycin] | 4 µg/mL (≈ 2.76 µM)
CCCCCCCCCC(=O)N[C@@H](Cc1c[nH]c2ccccc12)C(=O)N[C@H](CC(N)=O)C(=O)N[C@@H](CC(=O)O)C(=O)N[C@@H]1C(=O)NCC(=O)N[C@@H](CCCN)C(=O)N[C@@H](CC(=O)O)C(=O)N[C@H](C)C(=O)N[C@@H](CC(=O)O)C(=O)NCC(=O)N[C@H](CO)C(=O)N[C@@H]([C@H](C)CC(=O)O)C(=O)N[C@@H](CC(=O)c2ccccc2N)C(=O)O[C@@H]1C [daptomycin] | > 4 µg/mL
